Experimental data: patent US10294234B2, “HIV inhibitor compounds” (priority 2017, dated 2019)

Columns and labels:
[1] = test system: HIV-1 (IIIB) in MT-4 cells; assay: MT-4 HIV assay; type: cell-based; details: Human immunodeficiency virus 1, MT4, 120 h; HIV-1 (IIIB), MT-4 cells, 5 days, Cell Titer Glo; read-out: EC50
How it was run: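 Antiviral activity was read by Cell Titer Glo after a 5-day, 37 °C culture of MT-4 cells pre-infected with a 1:250 dilution of HIV-1 (IIIB). Compounds were tested as threefold dilution series in complete RPMI. Controls were no drug, mock infection and 5 uM AZT.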

in vivo [2] = details: rat, in vivo; for Vd / RAT PO F: male, SD; for Vd / RAT IV CL / RAT IV T1/2: iv; for RAT PO F: 2.5 mg/kg
How it was run: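 Male SD rats (n=3/group, 0.27–0.32 kg), fasted overnight, given 0.5 or 1.0 mg/kg by 30-min IV infusion, or by oral gavage. Serial plasma samples (EDTA-K2) over 24 h measured by LC/MS/MS; non-compartmental PK analysis.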

[3] = microsomes
How it was run: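 Each compound (1 uM) is incubated in duplicate with 0.5 mg/mL liver microsomal protein from dog, rat or human plus NADPH-regenerating system. Samples taken at 2, 12, 25, 45 and 65 minutes are deproteinised and quantified by LC/MS/MS. Half-life gives Clint.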

[4] = 3H Human Predicted Clearance Assay (tritiated analogs); type: in vitro ADME; details: human, 1 uM
Method: 3H Human Predicted Clearance Assay:
For certain compounds, tritiated analogs (H^3) were prepared to further determined their human predicted clearance with increased resolution. Those studies were performed as described above using the tritiated analogs. Data from those compounds is found in Table 2 below and reported in FIG. 1 (note ATV and DRV were not tritiated).

in vivo [5] = assay: in vivo
Method: Pharmacokinetic Profiling Dog PK
Each dosing group consisted of three non-naïve male beagle dogs. At dosing, the animals weighed between 9 to 12 kg. The animals were fasted overnight prior to dose administration and up to four hours after dosing. The test article was administered by intravenous infusion over 30-minutes. The rate of infusion was adjusted according to the body weight of each animal to deliver a dose of 0.5 or 1.0 mg/kg. For the oral dosing group, the test article was administered by oral gavage at a dose volume of 2 mL/kg.
Serial venous blood samples (approximately 1.0 mL each) were collected at predose and 0.25, 0.48, 0.58, 0.75, 1.0, 1.5, 2, 4, 8, 12 and 24 hours post dose from each animal for the IV dosing group; blood samples were collected at predose, 0.25, 0.50, 1, 2 4, 6, 8,12 and 24 hours post dose for the oral dosing group. The blood samples were collected into Vacutainer™ tubes containing EDTA-K2 as the anti-coagulant and were immediately placed on wet ice pending centrifugation for plasma. An LC/MS/MS method was used to measure the concentration of test compound in plasma. Non-compartmental pharmacokinetic analysis was performed on the plasma concentration-time data. VSS=apparent volume of distribution, t1/2=half life, F=oral bioavailability.

Row | Compound | EC50 [1] [nM] | Vd (in vivo [2]) [L/kg] | RAT PO F (in vivo [2]) [%] | RAT IV CL (in vivo [2]) [mL/min/kg] | RAT IV T1/2 (in vivo [2]) [h] | Dog. Pred. Cl. [3] [L/H/kg] | Human Pred Cl. [3] [L/H/kg] | Rat. Pred. Cl. [3] [L/H/kg] | 3H Human Predicted Cl. [4] | DOG IV CL (in vivo [5]; dog, in vivo, iv) [mL/min/kg] | DOG IV T1/2 (in vivo [5]; male beagle dogs, IV infusion over 30 minutes, 0.5 or 1.0 mg/kg) [h] | Vd (in vivo [5]; male, beagle, dog, in vivo, iv) [L/kg] | DOG PO F (in vivo [5]; male, beagle, dog, in vivo, po, 2 mg/kg) [%]
1 | COC(=O)N[C@H](C(=O)N[C@@H](Cc1ccc(C#Cc2ccc(N3CC4CCC(C3)N4C3COC3)nc2)cc1)[C@@H](O)CN(Cc1c(F)cc(-c2ccn(CC(F)F)n2)cc1F)NC(=O)[C@@H](NC(=O)OC)C(C)(C)C(F)(F)F)C(C)(C)C(F)(F)F [Example 46, Methyl ((5S,10S,11S,14S)-8-(4-(1-(2,2-difluoroethyl)-1H-pyrazol-3-yl)-2,6-difluorobenzyl)-16,16,16-trifluoro-10-hydroxy-15,15-dimethyl-11-(4-((6-(8-(oxetan-3-yl)-3,8-diazabicyclo[3.2.1]octan-3-yl)pyridin-3-yl)ethynyl)benzyl)-3,6,13-trioxo-5-(1,1,1-trifluoro-2-methylpropan-2-yl)-2-oxa-4,7,8,12-tetraazahexadecan-14-yl)carbamate] | 4.34 | 4.22 | 13 | 7.5 | 9.22 | 1.64 | <0.11 | 0.19 | 0.04 | – | – | – | –
2 | COC(=O)N[C@H](C(=O)NN(Cc1c(F)cc(-c2ccn(C(F)F)n2)cc1F)C[C@H](O)[C@H](Cc1ccc(C#Cc2ccc(N3CC4CCC(C3)N4C3COC3)nc2)cc1)NC(=O)[C@@H](NC(=O)OC)C(C)(C)C(F)(F)F)C(C)(C)C [Example 73, Methyl ((5S,8S,9S,14S)-11-(4-(1-(difluoromethyl)-1H-pyrazol-3-yl)-2,6-difluorobenzyl)-9-hydroxy-15,15-dimethyl-8-(4-((6-(8-(oxetan-3-yl)-3,8-diazabicyclo[3.2.1]octan-3-yl)pyridin-3-yl)ethynyl)benzyl)-3,6,13-trioxo-5-(1,1,1-trifluoro-2-methylpropan-2-yl)-2-oxa-4,7,11,12-tetraazahexadecan-14-yl)carbamate] | 4.72 | 3.34 | 35 | 5.33 | 9.43 | – | 0.13 | <0.18 | 0.09 | – | – | – | –
3 | COC(=O)N[C@H](C(=O)N[C@@H](Cc1ccc(C#Cc2cnc(N3CC4CCC(C3)N4C3COC3)nc2)cc1)[C@@H](O)CN(Cc1c(F)cc(-c2ncccn2)cc1F)NC(=O)[C@@H](NC(=O)OC)C(C)(C)C(F)(F)F)C(C)(C)C(F)(F)F [Example 89, Methyl ((5S,8S,9S,14S)-11-(2,6-difluoro-4-(pyrimidin-2-yl)benzyl)-16,16,16-trifluoro-9-hydroxy-15,15-dimethyl-8-(4-((2-(8-(oxetan-3-yl)-3,8-diazabicyclo[3.2.1]octan-3-yl)pyrimidin-5-yl)ethynyl)benzyl)-3,6,13-trioxo-5-(1,1,1-trifluoro-2-methylpropan-2-yl)-2-oxa-4,7,11,12-tetraazahexadecan-14-yl)carbamate] | 3.32 | 3.53 | 44.2 | 5 | 10.2 | 1.67 | <0.11 | <0.18 | 0.08 | – | – | – | –
4 | COC(=O)N[C@H](C(=O)N[C@@H](Cc1ccc(C#Cc2ccc(N3CC4CCC(C3)N4C3COC3)nc2)cc1)[C@@H](O)CN(Cc1c(F)cc(-c2ncccn2)cc1F)NC(=O)[C@@H](NC(=O)OC)C(C)(C)C(F)(F)F)C(C)(C)C(F)(F)F [Example 101, Methyl ((5S,8S,9S,14S)-11-(2,6-difluoro-4-(pyrimidin-2-yl)benzyl)-16,16,16-trifluoro-9-hydroxy-15,15-dimethyl-8-(4-((6-(8-(oxetan-3-yl)-3,8-diazabicyclo [3.2.1]octan-3-yl)pyridin-3-yl)ethynyl)benzyl)-3,6,13-trioxo-5-(1,1,1-trifluoro-2-methylpropan-2-yl)-2-oxa-4,7,11,12-tetraazahexadecan-14-yl)carbamate] | 4.22 | 6.07 | 38.4 | 8 | 10 | – | <0.11 | <0.18 | 0.08 | – | – | – | –
5 | COC(=O)N[C@H](C(=O)N[C@@H](Cc1ccc(C#Cc2ccc(N3CC4CCC(C3)N4C3COC3)nc2)cc1)[C@@H](O)CN(Cc1c(F)cc(-c2ccn(C3CC3)n2)cc1F)NC(=O)[C@@H](NC(=O)OC)C(C)(C)C(F)(F)F)C(C)(C)C(F)(F)F [Example 170, Methyl ((5S,8S,9S,14S)-11-(4-(1-cyclopropyl-1H-pyrazol-3-yl)-2,6-difluorobenzyl)-16,16,16-trifluoro-9-hydroxy-15,15-dimethyl-8-(4-((6-(8-(oxetan-3-yl)-3,8-diazabicyclo [3.2.1]octan-3-yl)pyridin-3-yl)ethynyl)benzyl)-3,6,13-trioxo-5-(1,1,1-trifluoro-2-methylpropan-2-yl)-2-oxa-4,7,11,12-tetraazahexadecan-14-yl)carbamate] | 4.13 | 3.32 | 36.6 | 5.83 | 9.38 | – | <0.11 | <0.18 | 0.05 | 23.2 | 7.62 | 4.35 | 2.45
6 | COC(=O)N[C@H](C(=O)N[C@@H](Cc1ccc(-c2cnc(N3CC4CCC(C3)N4C3COC3)nc2)cc1)[C@@H](O)CN(Cc1c(F)cc(-c2ccn(C(F)F)n2)cc1F)NC(=O)[C@@H](NC(=O)OC)C(C)(C)C(F)(F)F)C(C)(C)C(F)(F)F [Example 199, Methyl ((5S,8S,9S,14S)-11-(4-(1-(difluoromethyl)-1H-pyrazol-3-yl)-2,6-difluorobenzyl)-16,16,16-trifluoro-9-hydroxy-15,15-dimethyl-8-(4-(2-(8-(oxetan-3-yl)-3,8-diazabicyclo[3.2.1]octan-3-yl)pyrimidin-5-yl)benzyl)-3,6,13-trioxo-5-(1,1,1-trifluoro-2-methylpropan-2-yl)-2-oxa-4,7,11,12-tetraazahexadecan-14-yl)carbamate] | 2.72 | 1.07 | 14.7 | 7.67 | 2.09 | 0.91 | <0.11 | 0.48 | 0.15 | – | – | – | –
7 | COC(=O)N[C@H](C(=O)N[C@@H](Cc1ccc(C#Cc2ccc(N3CC4CCC(C3)N4C3COC3)nc2)cc1)[C@@H](O)CN(Cc1c(F)cc(-c2cc(F)ccn2)cc1F)NC(=O)[C@@H](NC(=O)OC)C(C)(C)C(F)(F)F)C(C)(C)C(F)(F)F [Example 239, methyl ((5S,8S,9S,14S)-11-(2,6-difluoro-4-(4-fluoropyridin-2-yl)benzyl)-16,16,16-trifluoro-9-hydroxy-15,15-dimethyl-8-(4-((6-(8-(oxetan-3-yl)-3,8-diazabicyclo[3.2.1]octan-3-yl)pyridin-3-yl)ethynyl)benzyl)-3,6,13-trioxo-5-(1,1,1-trifluoro-2-methylpropan-2-yl)-2-oxa-4,7,11,12-tetraazahexadecan-14-yl)carbamate] | 4.45 | 5.49 | 26.3 | 6.7 | 12.9 | – | <0.11 | <0.18 | 0.13 | – | – | – | –
